pIC50: −log10 of the molar value.
tested on: Entamoeba histolytica; assay: Antiamoebic activity against Entamoeba histolytica HM-1:IMSS; assay type: functional, organism-based

SMILES | pIC50
NC(=S)N1CCC(c2cccc(Br)c2)=N1 | 4.88
NC(=S)N1CCC(c2ccccc2)=N1 | 4.76
CC1CN(c2nc3nc4ccccc4nc3s2)N=C1c1cccc(Br)c1 (stereo unspecified) | 5.84
CC1CN(c2nc3nc4ccccc4nc3s2)N=C1c1cccc(Cl)c1 (stereo unspecified) | 6.14
CC1CN(C(N)=S)N=C1c1ccccc1 (stereo unspecified) | 4.99
CC1CN(c2nc3nc4ccccc4nc3s2)N=C1c1ccccc1 (stereo unspecified) | 5.63
Brc1cccc(C2=NN(c3nc4nc5ccccc5nc4s3)CC2)c1 | 5.30
c1ccc(C2=NN(c3nc4nc5ccccc5nc4s3)CC2)cc1 | 5.17
Cc1ncc([N+](=O)[O-])n1CCO [METRONIDAZOLE] | 5.77
Clc1cccc(C2=NN(c3nc4nc5ccccc5nc4s3)CC2)c1 | 5.96
NC(=S)N1CCC(c2cccc(Cl)c2)=N1 | 5.06
